Where “and” joins values, the source holds several entries; their conditions need not be identical. Equal entries are not always repeated. Structures can show the parent of a compound that is named as a salt. Where two headings read alike, the source gives them in different places.
Legend:
[1] = test system: SARS-CoV-2 (USA_WA1/2020); assay: microbe, parasite or virus in culture; format: cell-based; details: for Emax: Severe acute respiratory syndrome coronavirus 2, Vero C1008, DMSO 0%, no-virus control 100%, hit confirmation, read-out: CPE % efficacy
[2] = human; Single dose 25 mg PO; ref AA Pharma Inc. (2012); cited from earlier work
SARS-CoV = details: ref Barnard et al., 2008; read-out: EC50, inhibition of SARS-CoV replication; cited from earlier work
in vitro = details: African green monkey
Ebola virus = details: ref Kouznetsova et al., 2019; read-out: EC50, block of Ebola viral entry; cited from earlier work
Vero E6 cells = assay: cells; details: Chlorocebus sabaeus, Vero C1008, read-out: % Viability: IC50
SARS-CoV-2 [3] = test system: SARS-CoV-2; design: method as in Stanford University, 2020; details: Vero E6 cells; ref Stanford University, 2020; read-out: EC50 against SARS-CoV-2; cited from earlier work
SARS-CoV-2 [4] = test system: SARS-CoV-2; design: method as in Stanford University, 2020; details: Calu-3 or Huh7 cell lines; ref Stanford University, 2020; read-out: EC50 against SARS-CoV-2; cited from earlier work
P-glycoprotein (P-gp) = test system: P-glycoprotein (P-gp); design: method as in EMA, 2020; details: ref EMA, 2020; cited from earlier work
[5] = Severe acute respiratory syndrome coronavirus 2, Vero C1008, 72 h, read-out: CPE EC50

Structure (SMILES) | EC50 [1, 5] [µM] | Emax [1] [%] | Elimination T1/2 [2] [h] | EC50 (SARS-CoV) [µM] | cytotoxicity at 72 h (in vitro) [%] | EC50 (Ebola virus) [µM] | cytotoxicity (in vitro) [%] | EC50 ([1]; Severe acute respiratory syndrome coronavirus 2, Vero C1008, independent runs of primary screens and hit confirmation, read-out: EC50 in the CPE assay, control concentration-response per run) [µM] | IC50 ([1]; Severe acute respiratory syndrome coronavirus 2, Vero C1008, printed in picture of Figure 2B, one value per run, read-out: % CPE Rescue: IC50) [µM] | EC50 ([1]; independent runs of primary screens and hit confirmation, listed as remdesivir, read-out: EC50 in the CPE assay, control concentration-response per run) [µM] | EC50 ([1]; independent runs of primary screens and hit confirmation, read-out: EC50 in the CPE assay, control concentration-response per run) | IC50 (Vero E6 cells) [µM] | EC50 (SARS-CoV-2 [3]) [µM] | EC50 (SARS-CoV-2 [4]) [µM] | Substrate of Pgp (P-glycoprotein (P-gp))
COc1ccc2c(c1)N(C[C@H](C)CN(C)C)c1ccccc1S2 [Methotrimeprazine maleate, reference compound] | 10 | 84.6 | 10.8 | ~10 | < 30 | – | – | – | – | – | – | – | – | – | –
CC(=O)c1ccc2c(c1)N(CCCN1CCC(CCO)CC1)c1ccccc1S2 [Piperacetazine, reference compound] | 10 | 104 | – | – | – | 9.68 | < 30 | – | – | – | – | – | – | – | –
CCC(CC)COC(=O)[C@H](C)N[P@](=O)(OC[C@H]1O[C@@](C#N)(c2ccc3c(N)ncnn23)[C@H](O)[C@@H]1O)Oc1ccccc1 [Remdesivir, reference compound] | 10 | 133 | – | – | – | – | < 30 | 4.56 | 4.56 | 5.17 | 4.42 µM and 7.28 µM | > 30 | > 1 | > 0.05 | substrate of Pgp
